Eleven molecules from patent publication US9273075B2, “Prodrugs of 1,4-benzodiazepinone compounds” (BRISTOL-MYERS SQUIBB COMPANY, priority 2012, dated 2016) can be followed below.

Each structure is given as a SMILES string. ≈ marks a conversion by molar mass, not a printed value. Like-named read-outs stand apart in the source and are kept apart here.

For data set [1] the following is noted: 0.5 μM compound, human liver microsomes, ten-minute incubation, NADPH.
Experimental: The metabolic stability assay evaluated CYP-mediated metabolic stability in vitro using human, rat, mouse, dog, and/or monkey microsomes after a ten-minute incubation. Each compound was tested in duplicate.
Test compound was received as a 3.5 mM stock solution in 100 percent DMSO. […] Each compound was tested in duplicate separately in each of three species in the Metabolic Stability-Human, Rat, and Mouse assay suite or as individual species in the Metabolic Stability-Dog or Metabolic Stability-Monkey suites. Compound, NADPH, and liver microsome solutions were combined for incubation in three steps:
The reaction was initiated by the addition of 17 μl of pre-warmed 10 mM NADPH solution in 100 mM NaPi, pH 7.4.
The reaction components were mixed well, and 75 μl of the reaction mixture was immediately transferred into 150 μl quench/stop solution (zero-time point, T0). Reactions were incubated at 37° C. for 10 minutes and then an additional 75 μl aliquot was transferred into 150 μl quench solution. Acetonitrile containing 100 μM DMN (a UV standard for injection quality control), was used as the quench solution to terminate metabolic reactions.
Quenched mixtures were centrifuged at 1500 rpm (˜500×g) in an ALLEGRA® X-12 centrifuge, SX4750 rotor (Beckman Coulter Inc., Fullerton, Calif.) for fifteen minutes to pellet denatured microsomes. A volume of 90 μl of supernatant extract, containing the mixture of parent compound and its metabolites, was then transferred to a separate 96-well plate for UV-LC/MS-MS analysis to determine the percent of parent compound that remained in the mixture.
Peak integration was performed with the XCALIBUR® software. The percent remaining calculation was performed by comparing the LC-MS/MS peak areas from the T10minute samples to those from the T0minute samples for each compound.
A set of three compounds was tested along with the test compound in each assay plate.
Data set [2] can be described thus: High Throughput Metabolic Stability Panel, mouse liver microsomes. The following applies: 0.5 μM compound, mouse liver microsomes, ten-minute incubation, NADPH.
Data set [3] has as its system TALL1 Human T-cell acute lymphoblastic leukemia. In words: Human tumor xenograft in mice: TALL1. The data set is classed as in vivo. To be noted: FIG. 1; dosed intravenously QD×3, weekly×3; Compound A 3 mg/kg; Example 12 1.5, 3, 6 mg/kg; active = TGI≧50%. (A xenograft is tissue or cells of one species grown in another, often human tumour cells in immunodeficient mice.)

The nature of data set [4]: Thermodynamic Equilibrium Aqueous Solubility Assay. The data set is classed as physicochemical. The following applies: thermodynamic from solid. As to the method: Standards Preparation: The calibration standard was prepared by accurately weighing 0.5-0.7 mg of sample in 5 ml of methanol. If the material was not fully soluble in methanol, other solvents such as DMSO or mixed solvents were used.
Test Sample Preparation: An excess amount of powder prodrug was equilibrated with 1 mL of buffer (50 mM potassium phosphate, pH 6.5 and 50 mM sodium acetate, pH 4.0) in a 2 mL glass vial. The solution was sonicated and vortexed for ˜30 seconds. The vials were shaken at 300 rpm at room temperature for 24 hrs. The exact incubation time for a specific prodrug was based on the prior aqueous stability data. If the compound was stable in the buffer up to 24 hrs, then the solubility was measured after 24 hrs, otherwise kinetic solubility data was reported. The final saturated solution was then transferred to a 1.5 mL Eppendorf tube and centrifuged for ˜2 min. at 10000 rpms. The supernatant from the saturated solution was transferred to a glass HPLC vial and the solubility was analyzed by HPLC using a four point calibration curve.

A further data set can be described thus: Solution Stability Assay. The data set is classed as physicochemical. As to the method: Acetonitrile Stock Solution: Acetonitrile Stock Solution of the prodrug was prepared by dissolving 1.5-2.0 mg of weighted compound in 5.0 mL of acetonitrile in a 5 mL volumetric flask.
pH 6.5 Buffer Working Solution: A pH 6.5 Buffer Working Solution of drug was prepared by adding 1.5 mL of the Acetonitrile Stock Solution to 3.5 mL of stability buffer (50 mM potassium phosphate, pH 6.5) in a 10 mL vial, and mixing. Using a 3 mL syringe, ˜3 mL of solution was withdrawn and filtered using the Gelman 0.45 μm syringe filter into a clean 1.5 mL LC vial. This filtered solution will was used to evaluate the prodrug degradation throughout the course of the study. Target concentration: 90-120 μg/mL (70% Aqueous: 30% Acetonitrile)
pH 4.0 Acidic Working Solution: A pH 4.0 Working Solution of drug was prepared by adding 1.5 mL of the Acetonitrile Stock Solution to 3.5 mL of stability buffer (50 mM sodium acetate, pH 4.0) in a 10 mL vial and mixing. Using a 3 mL syringe, ˜3 mL of solution was withdrawn and filtered using the Gelman 0.45 μm syringe filter into a clean 1.5 mL LC vial. This filtered solution was used to evaluate the prodrug degradation throughout the course of the study. Target concentration: 90-120 μg/mL (70% Aqueous: 30% Acetonitrile)
Experimental Methods: Following the sample preparation procedure described above a single sample (n=1) was prepared for each pH condition. The samples were then placed in an HPLC autosampler maintained at 37° C. and samples were analyzed over a 24 h period. Prodrug remaining (%) was reported relative to the initial peak area (t=0 h). In cases where a conversion to parent half-life could be calculated, a t1/2 was generated. Confirmation of the conversion to parent from the prodrug was obtained by LCMS and HPLC analysis of the final timepoint samples.
Typical LC parameters are shown below: • HPLC System: HP1100 Series, Hewlett Packard., Heated autosampler • Analytical column: Synergi 4 u Hydro C18, 4.6 mm×5.0 cm, PHENOMENEX® • Column temperature: 40° C. • Autosampler temp: 37° C. • Flow rate: 1.0 mL/min • Injection Volume: 10 μL • Mobile Phase: A: Acetonitrile • B: 0.1% Phosphoric acid in water • Run Time: 14.0 minutes Typical LCMS parameters are shown below: • LC-MS System: Surveyor HPLC system, ThermoFinnigan LCQ Deca XP Max (Ion trap) • Analytical column: Synergi 4 u Hydro C18, 4.6 mm×5.0 cm, PHENOMENEX® • Column temperature: 40° C. • Autosampler temp: 22° C. • Flow rate: 1.0 mL/min • Injection Volume: 5 μL • Mobile Phase: A: 95% Acetonitrile/5% 20 mM Ammonium Acetate • B: 5% Acetonitrile/95% 20 mM Ammonium Acetate LCQ Parameters: • Sheath Flow Rate: 81.64 • Aux/Sweep Flow Rate: 19.01 • Current (uA): 10.89 • Voltage (kV): 5.00 • Capillary (C): 348.10 • Capillary Voltage (V): 30.44

The mark [5] stands for this setting: potassium phosphate buffer, pH 6.5, aqueous buffer, read-out: Solubility (mg/mL) pH 6.5.
Where [6] appears, read: sodium acetate buffer, pH 4, aqueous buffer, read-out: Solubility (mg/mL) pH 4.0.
Where [7] appears, read: potassium phosphate buffer with 30% acetonitrile, pH 6.5, read-out: Stability (t1/2, h) pH 6.5 (converted).
[8] abbreviates: sodium acetate buffer with 30% acetonitrile, pH 4, read-out: Stability (t1/2, h) pH 4.0 (converted).

Take `NC(=O)[C@@H](CCC(F)(F)F)[C@@H](CCC(F)(F)F)C(=O)N[C@H]1N=C(c2ccccc2)c2ccccc2NC1=O` [Compound B, (2R,3S)—N-((3S)-2-Oxo-5-phenyl-2,3-dihydro-1H-1,4-benzodiazepin-3-yl)-2,3-bis(3,3,3-trifluoropropyl)succinamide]: the “0.5 μM HLM (% Remaining)” value in data set [1] turned out to be 88%. Besides, the “0.5 μM MsLM (% Remaining)” value in data set [2] came to 86%.
Consider `CN1C(=O)[C@@H](NC(=O)[C@H](CCC(F)(F)F)[C@H](CCC(F)(F)F)C(=O)NSC[C@H](N)C(=O)O)N=C(c2ccccc2)c2ccccc21` [Example 12, S-(((2S,3R)-6,6,6-Trifluoro-3-(((3S)-1-methyl-2-oxo-5-phenyl-2,3-dihydro-1H-1,4-benzodiazepin-3-yl)carbamoyl)-2-(3,3,3-trifluoropropyl)hexanoyl)amino)-L-cysteine], for which the “in vivo efficacy against TALL1, activity as defined by the tumor growth inhibition (TGI)” value in data set [3] was “active”. Further, the solubility at 24 h in data set [4] (setting [5]) turned out to be 0.63 mg/mL (≈ 932 µM); in data set [4] (setting [6]), 0.82 mg/mL (≈ 1210 µM). For the same molecule, the half-life is 251 h in “Solution Stability Assay” (setting [7]) and 376 h in “Solution Stability Assay” (setting [8]).
For `COC(=O)[C@@H](N)CSNC(=O)[C@@H](CCC(F)(F)F)[C@@H](CCC(F)(F)F)C(=O)N[C@H]1N=C(c2ccccc2)c2ccccc2N(C)C1=O` [Example 14, Methyl S-(((2S,3R)-6,6,6-trifluoro-3-(((3S)-1-methyl-2-oxo-5-phenyl-2,3-dihydro-1H-1,4-benzodiazepin-3-yl)carbamoyl)-2-(3,3,3-trifluoropropyl)hexanoyl)amino)-L-cysteinate], the solubility at 24 h in data set [4] (setting [5]) was found to be 0.02 mg/mL (≈ 29 µM); in data set [4] (setting [6]) it was 0.42 mg/mL (≈ 609 µM). The figures for the half-life in the data set “Solution Stability Assay” (setting [7]) and in the data set “Solution Stability Assay” (setting [8]) were 44 h and 73 h, respectively.
Regarding `CN1CCN(CNC(=O)[C@@H](CCC(F)(F)F)[C@@H](CCC(F)(F)F)C(=O)N[C@H]2N=C(c3ccccc3)c3ccccc3N(C)C2=O)CC1` [Example 15, (2R,3S)—N-((3S)-1-Methyl-2-oxo-5-phenyl-2,3-dihydro-1H-1,4-benzodiazepin-3-yl)-N′-((4-methyl-1-piperazinyl)methyl)-2,3-bis(3,3,3-trifluoropropyl)succinamide], the values for the solubility at 24 h in data set [4] (setting [5]) and in data set [4] (setting [6]) were over 0.41 mg/mL and 0.27 mg/mL (≈ 404 µM), respectively. For the same molecule, the half-life in the data set “Solution Stability Assay” (setting [7]) and in the data set “Solution Stability Assay” (setting [8]) was over 500 h each time.
For `CN1C(=O)[C@@H](NC(=O)[C@H](CCC(F)(F)F)[C@H](CCC(F)(F)F)C(=O)NCN2CCCCC2)N=C(c2ccccc2)c2ccccc21` [Example 16, (2R,3S)—N-((3S)-1-Methyl-2-oxo-5-phenyl-2,3-dihydro-1H-1,4-benzodiazepin-3-yl)-N′-(1-piperidinylmethyl)-2,3-bis(3,3,3-trifluoropropyl)succinamide], the results for the solubility at 24 h in data set [4] (setting [5]) and in data set [4] (setting [6]) were 0.01 mg/mL (≈ 15.3 µM) and 0.23 mg/mL (≈ 352 µM), respectively. Further, the half-life is 16 h in the data set “Solution Stability Assay” (setting [7]) and 250 h in the data set “Solution Stability Assay” (setting [8]).
The matching figures for `CN1C(=O)[C@@H](NC(=O)[C@H](CCC(F)(F)F)[C@H](CCC(F)(F)F)C(=O)NCN2CCC(N)CC2)N=C(c2ccccc2)c2ccccc21` [Example 17, (2S,3R)—N-((4-Amino-1-piperidinyl)methyl)-N′-((3S)-1-methyl-2-oxo-5-phenyl-2,3-dihydro-1H-1,4-benzodiazepin-3-yl)-2,3-bis(3,3,3-trifluoropropyl)succinamide]: over 1.9 mg/mL, 0.56 mg/mL (≈ 837 µM), 300 h and 250 h.
The matching figures for `CN1C(=O)[C@@H](NC(=O)[C@H](CCC(F)(F)F)[C@H](CCC(F)(F)F)C(=O)NCN2CCC(N(C)C)CC2)N=C(c2ccccc2)c2ccccc21` [Example 18, (2S,3R)—N-((4-(Dimethylamino)-1-piperidinyl)methyl)-N′-((3S)-1-methyl-2-oxo-5-phenyl-2,3-dihydro-1H-1,4-benzodiazepin-3-yl)-2,3-bis(3,3,3-trifluoropropyl)succinamide]: over 1.05 mg/mL, 0.29 mg/mL (≈ 416 µM), over 500 h and over 500 h.
Take `CN1C(=O)[C@@H](NC(=O)[C@H](CCC(F)(F)F)[C@H](CCC(F)(F)F)C(=O)NCN2CCC(O)CC2)N=C(c2ccccc2)c2ccccc21` [Example 19, (2S,3R)—N-((4-Hydroxy-1-piperidinyl)methyl)-N′-((3S)-1-methyl-2-oxo-5-phenyl-2,3-dihydro-1H-1,4-benzodiazepin-3-yl)-2,3-bis(3,3,3-trifluoropropyl)succinamide]: the solubility at 24 h in data set [4] (setting [5]) was over 1.42 mg/mL; in data set [4] (setting [6]), 0.97 mg/mL (≈ 1450 µM). The half-life was 56 h in “Solution Stability Assay” (setting [7]) and over 500 h in the data set “Solution Stability Assay” (setting [8]).
The like results for `CN1C(=O)[C@@H](NC(=O)[C@H](CCC(F)(F)F)[C@H](CCC(F)(F)F)C(=O)NCN2CCC(O)C2)N=C(c2ccccc2)c2ccccc21` (stereo partly drawn) [Example 20, (2S,3R)—N-((3-Hydroxy-1-pyrrolidinyl)methyl)-N′-((3S)-1-methyl-2-oxo-5-phenyl-2,3-dihydro-1H-1,4-benzodiazepin-3-yl)-2,3-bis(3,3,3-trifluoropropyl)succinamide] were, in that order, 0.39 mg/mL (≈ 595 µM), 0.43 mg/mL (≈ 656 µM), 15 h and 97 h.
The matching figures for `CN1C(=O)[C@@H](NC(=O)[C@H](CCC(F)(F)F)[C@H](CCC(F)(F)F)C(=O)NCN2CCC(N(C)C)C2)N=C(c2ccccc2)c2ccccc21` (stereo partly drawn) [Example 21, (2S,3R)—N-((3-(Dimethylamino)-1-pyrrolidinyl)methyl)-N′-((3S)-1-methyl-2-oxo-5-phenyl-2,3-dihydro-1H-1,4-benzodiazepin-3-yl)-2,3-bis(3,3,3-trifluoropropyl)succinamide]: 0.63 mg/mL (≈ 923 µM), 0.64 mg/mL (≈ 937 µM), 376 h and 334 h.
With `CN1C(=O)[C@@H](NC(=O)[C@H](CCC(F)(F)F)[C@H](CCC(F)(F)F)C(=O)NCN2CCCC2)N=C(c2ccccc2)c2ccccc21` [Example 22, (2R,3S)—N-((3S)-1-Methyl-2-oxo-5-phenyl-2,3-dihydro-1H-1,4-benzodiazepin-3-yl)-N′-(1-pyrrolidinylmethyl)-2,3-bis(3,3,3-trifluoropropyl)succinamide], the solubility at 24 h in data set [4] (setting [5]) is 0.03 mg/mL (≈ 46.9 µM); in data set [4] (setting [6]) it was over 0.39 mg/mL. Further, in the data set “Solution Stability Assay” (setting [7]), the half-life was 7 h.
